Laboratory results as given in PubChem BioAssay AID2305 (GlaxoSmithKline (GSK), 2010).

System: P. falciparum 3D7 growth, pLDH absorbance
Test: blood-stage malaria parasite growth potency – strain 3D7, dose response (AID 2305)

SMILES | IC50 [µM]
CC[C@H]1CN2CC[C@H]1C[C@H]2[C@@H](O)c1cc(OCCCN(C)C)nc2ccc(OC)cc12 | 0.13
O=C(Nc1ccc(-c2nc3ccccc3[nH]2)cc1)C1CCCN(C2CCC2)C1 (stereo unspecified) | 1.35
COc1cc2c(cc1OCCN1CCC(N3CCCCC3)CC1)N(C(=O)/C=C/c1ccccc1OC(F)(F)F)CC2 | 0.59
Cc1ccc(NC(=O)NC2CCN(CCCCCNC(=O)/C=C/c3ccc(Cl)c(Cl)c3)CC2)cc1C | 0.73
COC(=O)CCn1c(C2CCN(CC3CCC(NC(=O)/C=C/c4ccc(Cl)c(Cl)c4)CC3)CC2)nc2ccccc21 (stereo unspecified) | 0.95
COc1cc2cc(C(=O)Nc3ccccc3)c(N)nc2cc1OC | 1.13
COc1ccc(OCCON)cc1 | 0.2
CN(C)c1ccc(CN2CCC(NC(=O)c3ccc(-c4ccccc4F)s3)CC2)cc1 | 1.12
CNc1ccc(CNCc2ccc(-c3ccc(-c4nc5ccc(C(F)(F)F)cc5[nH]4)cc3)cc2)cc1 | 0.17
CCCCCCC(C)(C)c1cc(O)c2c3c(c(=O)oc2c1)CCN(Cc1ccccc1)C3 | 0.22
NC(N)=NC(=O)Nc1cc(Cl)c(Cl)c(Br)c1 | 0.61
CCCCCCOc1ccc(N2C(N)=NC(N)=NC2(C)C)cc1 | 0.34
O=C(NC1CCN(c2ccnc3cc(Cl)ccc23)C1)c1cccc(F)c1 (stereo unspecified) | 0.18
O=C(Nc1cccc(CN2CCN(C(=O)c3cccc(Cl)c3)CC2)c1)c1ccco1 | 0.44
CN(C)CCNC(=O)c1ccc2c(c1)ncn2-c1cc(OCc2ccccc2C(F)(F)F)c(C(N)=O)s1 (tested in a mixture with another compound) | 0.81
O=C(Nc1ccc(Cl)c(Cl)c1)N[C@H]1CCN(CCCCCNC(=O)[C@@H]2C[C@H]2c2ccc(Cl)c(Cl)c2)C1 | 1.03
Fc1ccc2ncc(Cl)c(CCN3CCC(NCc4cc5c(cn4)OCCO5)CC3)c2c1 | 0.88
COc1ccc(C2N=C(N)N=C(N)N2OCc2ccccc2)cc1OC (stereo unspecified) | 0.13
COc1ccc2nccc([C@@H](O)CN3CCC(NCc4cc5cccc(OC)c5o4)CC3)c2c1 | 0.79
O=C(NCC1CCC1)c1cnc(Nc2cccc(Cl)c2)nc1N1CCC1 | 0.86
Oc1c(C=Nn2cnnc2)sc2ccccc12 | 0.91
OCC1CCN(Cc2ccc(-c3cccc(-c4nc5ccccc5[nH]4)c3)cc2)CC1 | 0.81
NC1CCN(c2cnn(Cc3cccc(NC(=O)Nc4ccc(-c5ccccc5)cc4)c3)c(=O)c2Cl)CC1 | 1.14
O=C(NCCCCN1CCC(c2ccc3c(c2OCCO)CCCC3)CC1)c1ccc(-c2ccc(C(F)(F)F)cc2)cc1 | 0.86

SMILES | IC50 [µM]
COc1ccc2nccc([C@@H](O)CN3CCC(NCc4nc5ccccc5s4)CC3)c2c1 | 0.93
COc1ccc(CNC2CCN(C)CC2)cc1-c1ccc(S(=O)(=O)NC2CCC2)c(F)c1 | 0.84
COC(=O)c1ccc(CC(C)NCC(O)c2cc(Cl)c(N)c(Cl)c2)cc1 (stereo unspecified) | 0.88
Cn1nc(-c2cccc(CNCc3ccccc3)c2)c2cnc(NC3CCCC3)nc21 | 1.26
COc1ccc2nccc([C@@H](O)CN3CCC(NC(=O)COc4nc(SCc5ccc(F)cc5)nc5c4CCC5)CC3)c2c1 | 0.59
Cc1nc2ccc(-c3nc4ccc(N)cc4[nH]3)cc2[nH]1 | 0.23
CC(C)CNCc1ccc(-c2cccc(CNc3ccc4ncccc4c3)c2)cc1 | 0.91
COc1cc2nc(N3CCC(CNC(=O)c4ccc(-c5ccc(O)cc5)cc4)CC3)nc(N)c2cc1OC | 0.17
O=C(c1cc(C(=O)NC2CCCCC2)c(=O)n(C2CCCCC2)c1)c1cc(F)ccc1O | 0.63
COc1ccc(Cl)cc1N1CCN(CCCNC(=O)c2ccc(-c3nc4cc(Cl)c(F)cc4[nH]3)s2)CC1 | 0.31
Cn1cncc1-c1ccc2c(-c3ccsc3)cnc(N)c2c1 | 0.85
COc1ccc(CCNCCCCCCNCCCc2ccc(Cl)cc2)cc1OC | 0.95
COc1cc(-n2cnc3cc(-c4ccc(Cl)cc4)sc3c2=O)ccc1OCCN1CCC(c2cccc(NC(C)=O)c2)CC1 | 0.55
CN1CCN(c2ccc(CNc3ccc4ncc(-c5ccc(OC(F)(F)F)cc5)n4n3)cc2)CC1 | 0.83
COc1ccc2ncc(F)c(CCN3C[C@H](CNCc4ccc5oc(=O)ccc5c4)[C@H](O)C3)c2n1 | 0.95
N#CC(NC(=O)C=Cc1ccccc1)c1ccccc1 (stereo unspecified) | 0.18
CC(=O)CSC(C=Cc1ccc(N(C)C)cc1)=Nc1ccccc1 | 1.12
COc1ccc(OC)c(NC(=O)C2c3ccccc3C(=O)N(CC(C)C)C2c2cccs2)c1 (stereo unspecified) | 0.81
Cc1ccc(C(C#N)c2ccc3c(C(F)(F)F)cc(C(F)(F)F)nc3n2)cc1 (stereo unspecified) | 0.7
O=C(Nc1ccccc1)N(Cc1ccc(-c2cccc(CNC3CCCC3)c2)cc1)C1CCN(Cc2ccccc2)CC1 | 0.43
CCCCCc1cc(O)c2c(c1)OC(C)(C)C=C2C1=CCN(Cc2ccsc2)CC1 | 0.96
COc1ccc(-c2cncc(-c3ccc(OC)c(OC)c3)n2)cc1OC | 0.78
CCOC(=O)c1[nH]c(-c2cccc(F)c2)nc1N | 0.75
CCc1c[nH]c2c(N3CCCCS3(=O)=O)cc(C(=O)N[C@@H](Cc3ccccc3)[C@H](O)CNCc3cccc(OC)c3)cc12 | 0.91

SMILES | IC50 [µM]
CNCCNCc1ccc(-c2ccc(-c3nc4ccccc4[nH]3)s2)cc1 | 0.86
COc1ccc2[nH]c(C(=O)Nc3cccc(-c4ccc(CN(C)C)cc4)c3)cc2c1 | 0.91
COc1ccc(S(=O)(=O)NC2CCN(c3ccc(C(F)(F)F)cc3NC(=O)OCC(C)C)CC2)cc1 | 1.22
Cn1cncc1C(=O)Nc1cccc(-c2ccc(-c3nc4ccc(C(F)(F)F)cc4[nH]3)cc2)c1 | 0.51
COC(=O)c1ccc(CCCNCC(O)c2cccc(C(F)(F)F)c2)cc1 (stereo unspecified) | 0.8
CCCCNc1c(C(=O)OCC)c(C)nc2c1[nH]c1ccccc12 | 0.68
O=C(/C=C/c1ccc(Cl)c(Cl)c1)NCCCCCN1CCCN(C(=O)Nc2ccc(Br)cc2)CC1 | 0.78
Nc1cccc(-c2ccc3ccnc(N)c3c2)c1 | 0.8
Cc1sc2ncnc(Sc3nnc(N)s3)c2c1C | 0.4
COc1ccccc1NC(=O)Nc1ccc(-c2ccc(-c3nc4c(C)cccc4[nH]3)s2)cc1 | 0.16
O=S(=O)(NC1CCN(c2ccnc3cc(Cl)ccc23)C1)c1cccc(F)c1 (stereo unspecified) | 0.49
Nc1ncc(-c2ccsc2)c2ccc(-c3ccc4cn[nH]c4c3)cc12 | 0.81
CCC[C@@H]([C@@H](Cc1ccc(C)s1)C(=O)N[C@@H](CNC(C)=O)C(=O)Nc1nccs1)N(O)C=O | 0.18
COc1ccc(CN2CCN(CCOC(c3ccccc3)c3ccc(Cl)cc3)CC2)c(O)c1 (stereo unspecified) | 0.71
Cc1cccc2[nH]c(-c3ccc(-c4cccc(NC(=O)c5cnn6cccnc56)c4)cc3)nc12 | 0.87
COc1ccccc1C1CCN(C2CCC(NC(=O)c3cc(-c4ccc(Cl)cc4)cs3)CC2)CC1 (stereo unspecified) | 0.38
O=C(Nc1ccc(-c2cccc(-c3nc4ccccc4[nH]3)c2)cc1)Nc1ccc2c(c1)OCO2 | 0.25
NC(=O)CN1CC=C(c2c[nH]c3ccc(Br)cc23)CC1 | 1.1
COc1cccc2cc(C(=O)N[C@@H](CC(C)C)C(=O)N[C@H](/C=N/N3CCOC3=O)Cc3ccccc3)oc12 | 0.69
COc1cc(C)nc2ccc(NC(=O)c3cc(C(F)(F)F)cc(C(F)(F)F)c3)cc12 | 0.91
COc1ccccc1-n1c(SCC(=O)Nc2ccccc2F)nc2cccnc21 | 0.42
Cn1nc(-c2cccc(CNC3CCc4ccccc43)c2)c2cnc(NCCCN3CCCC3)nc21 (stereo unspecified) | 0.88
Cc1cc(N2CCCN(CC3CCCCC3)CC2)nc(Nc2ccc(Br)cc2)n1 | 0.94
